Laboratory results from publication PMC4188581 (PLoS ONE, 2014).
pKd: −log10 of the molar value. Ends that are not written are not given here.

What was measured:
CDK2 = CDK2 (Homo sapiens, UniProt P24941); assay: Surface Plasmon Resonance (SPR) peptide binding assay; conditions: for Ka1 / Ka2 / Kd1 / Kd2: two-state model
Method: Data were fitted globally by using the standard two state models provided by Biacore T200 Software v2.0.
Single-cycle kinetics experiments were performed with a T200 apparatus. The experiments were done on S-CM5 sensor chips coated with 6000 RU of CDK2. A flow cell left blank was used for double-referencing of the sensorgrams. Binding experiments were performed in standard PBS-P buffer with 60 µM ATP as running buffer (10 mM NaH2PO4/Na2HPO4, 150 mM NaCl, 60 µM ATP and 0.05% surfactant P20, pH 7.4) at 25°C with a flow rate of 30 µl/min. The peptide samples were prepared in the running buffer, and were injected.
Single-cycle kinetics assay were performed using the standard SCK method implemented by the T200 Control Software. In single-cycle analysis, the analyte is injected with increasing concentrations in a single cycle. The surface is not regenerated between injections. A blank injection of buffer only was subtracted from each curve, and reference sensorgrams were subtracted from experimental sensorgrams to yield curves representing specific binding. Data were fitted globally by using the standard two-state model provided by T200 Software v2.0. The data shown are representative of at least three independent experiments.

CDK2/Cyclin E complex = target: T1, CDK2/Cyclin E complex (Homo sapiens, UniProt P24941); assay: Cyclin E immunoprecipitation and Western blot for CDK2 (complex dissociation); type: biochemical; conditions: 10 µM peptide, C81 fractionated cell extracts
T1 construct: endogenous in cells; host or cells: C81 (HTLV-1-infected T-cell line), size-exclusion fractions 28-31 of whole cell lysate
Method: This is discussed below by the kinase activity experiment.
(§1) B) Immunoprecipitated Cyclin E samples in the presence of peptides were assessed for kinase activity. Histone H1 (1 µg/reaction) was added to each reaction tube along with 2 µl of (γ-32P) ATP (3000 Ci/mmol). Reactions were incubated at 37°C for 30 min and stopped by the addition Laemmli buffer. The samples were separated on a 4–20% Tris–Glycine gel. Samples were ran on a gel, dried, and exposed to a PhosphorImager cassette and analyzed using Molecular Dynamic’s ImageQuant Software.
C81 whole cell lysate (5 mg) was fractionated on a Superose 6 HR 10/30 column (Amersham Biosciences, Piscataway, NJ) in Buffer D (20 mM HEPES (pH 7.9), 0.05 M KCl, 0.2 mM EDTA, 0.5 mM PMSF, 0.05 DTT, and 20% Glycerol). Flow-through was collected at 0.5 ml for 50 fractions.
The pooled C81 extracts (250 µg each) were combined with 10 µM of each respective peptide. Cyclin E antibody (Santa Cruz, sc-198) was added to each reaction tube (10 µl, 2 µg), the reaction mixture was brought up to 500 µl with TNE50+0.1% NP-40 (100 mM Tris, pH 8.0; 50 mM NaCl; 1 mM EDTA, 0.1% Nonidet P-40) and was allowed to incubate while rotating overnight at 4°C. α-IgG was added to extract as a negative control, and an IP was performed in the absence of competing peptide, acting as a positive control. […]

CDK2/Cyclin complex = target: T2, CDK2/Cyclin complex (Homo sapiens, UniProt P24941); assay: Kinase assay of immunoprecipitated Cyclin E samples with Histone H1; type: biochemical; conditions: 10 µM peptide, Histone H1 substrate
T2 construct: endogenous in cells; host or cells: C81 (HTLV-1-infected T-cell line), size-exclusion fractions 28-31 of whole cell lysate
Method: as §1
The levels of phosphorylation of H1 are shown in the presence of the six designed peptides.
Immunoprecipitated samples were assessed for kinase activity. After the final TNE50+0.1% NP-40 wash, beads were washed with kinase buffer (50 mM HEPES, 10 mM MgCl2, 5 mM MnCl2, 1 mM DTT, 50 mM NaF, 0.2 mM Na3VO4 and one complete tablet of protease cocktail inhibitor/50 ml buffer) to equilibrate the reaction. Histone H1 (1 µg) was added to each reaction tube along with the γ-32P ATP (2 µl at 3000 Ci/mmol). Reactions were incubated at 37°C for 30 min and stopped by the addition of 15 µl Laemmli buffer. The samples were separated by reducing SDS-PAGE on a 4–20% Tris–Glycine gel. Gels were stained with Coomassie blue, destained, and then dried for 2 hours. Following drying, the gels were exposed to a PhosphorImager cassette and analyzed utilizing Molecular Dynamic’s ImageQuant Software.

Row | Molecule | mechanism of binding (SPR response curve) (CDK2) | Ka1 (CDK2; with 60 µM ATP) [M⁻¹ s⁻¹] | Ka2 (CDK2; with 60 µM ATP) | Kd1 (CDK2; with 60 µM ATP) | Kd2 (CDK2; with 60 µM ATP) | Ka1 (CDK2; without ATP) [M⁻¹ s⁻¹] | Ka2 (CDK2; without ATP) | Kd1 (CDK2; without ATP) | Kd2 (CDK2; without ATP) | dissociation of CDK2 from the CDK2/Cyclin complex (CDK2/Cyclin E complex) | kinase activity (phosphorylation of H1) (CDK2/Cyclin complex) | pKd (CDK2; without ATP)
1 | CC(C)C[C@H](NC(=O)[C@H](C)NC(=O)[C@H](C)NC(=O)[C@@H](N)CC(=O)O)C(=O)N[C@H](C(=O)O)[C@@H](C)O [DAALT, NH2-D-A-A-L-T-OH] | fast binding and fast dissociation | 612.9 ± 13.0 | 34.6±1.0 E-3 1/Ms | 101.2±4.3 E-3 1/s | 10.1±0.1 E-3 1/s | 434.1 ± 6.6 | 14.1±0.4 E-4 1/Ms | 23.2±0.4 E-3 1/s | 1.3±0.6 E-5 1/s | dissociation of CDK2 from the CDK2/Cyclin complex | clear loss of kinase activity | –
2 | CC(C)C[C@H](NC(=O)[C@H](C)NC(=O)[C@H](C)NC(=O)[C@@H](N)Cc1ccc(O)cc1)C(=O)N[C@@H](CCC(N)=O)C(=O)O [YAALQ, NH2-Y-A-A-L-Q-OH] | fast binding and fast dissociation | – | 12.3±0.3 E-3 1/Ms | 53.9±1.4 E-3 1/s | 1.6±0.1 E-3 1/s | – | 9.0±0.3 E-3 1/Ms | 84.0±2.7 E-3 1/s | 2.2±0.1 E-3 1/s | weak complex disassociation | clear loss of kinase activity | –
3 | LAALS [LAALS, reference compound] | – | – | – | – | – | – | – | – | – | – | – | 5.10
